Where a SMILES comes first, the peptide text is derived from it.
Assay: Chemical stability (RP-HPLC normalized purity after incubation at 40° C.)
Type: physicochemical
Settings: 14-day incubation, 0.2 mg/ml, normalized purity (area-%); for pH 7 normalized stability: pH 7, 40° C.
Method: Samples of each test peptide were dissolved in MILLIQ™ water, and the pH of the solution was adjusted to pH 6, 7, 7.5 or 9 using either HCl or NaOH. The final peptide concentration was 0.2 mg/ml. Samples were placed in glass vials and incubated at 40° C. The samples were analyzed by RP-HPLC on a C18 column with gradient elution using an acetonitrile/TFA/water eluent system. The area-percentage (area-%) of the main peak after incubation time T=t (relative to time T=0) was determined by UV spectroscopy at 220 nm.
The purity was first determined as follows: Purity(area-%)=(area of main peak/total area of all peaks)×100.
The purity was then normalized between time points by setting purity at time 0 (T=0) to 100 for each pH value for a given peptide, as follows: Normalized area-% at time t(T=t)=[area-%(T=t)/area-%(T=0)]×100.
The chemical stability assessment results after 14-day incubation (in the form of normalized purity values) are summarized in Table 4.

Structure (SMILES)	pH 7 normalized stability	pH 6 normalized stability (pH 6, 40° C.)
CCCCCCCCCCCCCCCC(=O)NCCC(=O)NCCCC[C@H](NC(=O)[C@H](CC(=O)O)NC(=O)[C@H](CC(C)C)NC(=O)[C@@H](NC(=O)[C@@H](NC(=O)[C@H](C)NC(=O)[C@H](CC(C)C)NC(=O)[C@H](CCC(=O)O)NC(=O)[C@H](CO)NC(=O)[C@@H](NC(=O)[C@H](Cc1ccccc1)NC(=O)[C@H](CO)NC(=O)CNC(=O)[C@H](CCC(=O)O)NC(=O)C(C)(C)NC(=O)[C@@H](N)Cc1c[nH]cn1)[C@@H](C)O)[C@@H](C)O)[C@@H](C)CC)C(=O)N[C@@H](CCC(N)=O)C(=O)N[C@@H](C)C(=O)N[C@@H](C)C(=O)N[C@@H](CCCNC(=N)N)C(=O)N[C@@H](CC(=O)O)C(=O)N[C@@H](Cc1ccccc1)C(=O)N[C@H](C(=O)N[C@@H](C)C(=O)N[C@@H](Cc1c[nH]c2ccccc12)C(=O)N[C@@H](CC(C)C)C(=O)N[C@@H](CCC(N)=O)C(=O)N[C@@H](CCC(N)=O)C(=O)N[C@@H](Cc1c[nH]cn1)C(=O)N[C@@H](CCCCN)C(=O)N[C@H](C(=O)N[C@H](C(=O)N[C@@H](CC(=O)O)C(=O)O)[C@@H](C)O)[C@@H](C)CC)[C@@H](C)CC [Compound 32] (HELM PEPTIDE1{H.[Aib].E.G.S.F.T.S.E.L.A.T.I.L.D.K.Q.A.A.R.D.F.I.A.W.L.Q.Q.H.K.I.T.D}|PEPTIDE2{[CCCCCCCCCCCCCCCC(=O)[*:2]].[bAla]}$PEPTIDE1,PEPTIDE2,16:R3-2:R2$$$V2.0)	A (>90% normalised stability)	–
CC[C@H](C)[C@H](NC(=O)[C@H](Cc1ccccc1)NC(=O)[C@H](CC(=O)O)NC(=O)[C@H](CCCNC(=N)N)NC(=O)[C@H](C)NC(=O)[C@H](C)NC(=O)[C@H](CCC(N)=O)NC(=O)[C@H](CCCCNC(=O)CC[C@H](NC(=O)CCCCCCCCCCCCCCCCC(=O)O)C(=O)O)NC(=O)[C@H](CC(=O)O)NC(=O)[C@H](CC(C)C)NC(=O)[C@@H](NC(=O)[C@@H](NC(=O)[C@H](C)NC(=O)[C@H](CC(C)C)NC(=O)[C@H](CCC(=O)O)NC(=O)[C@H](CO)NC(=O)[C@H](CO)NC(=O)[C@H](Cc1ccccc1)NC(=O)[C@H](CO)NC(=O)CNC(=O)[C@H](CCC(=O)O)NC(=O)C(C)(C)NC(=O)[C@@H](N)Cc1c[nH]cn1)[C@@H](C)O)[C@@H](C)CC)C(=O)N[C@@H](C)C(=O)N[C@@H](Cc1c[nH]c2ccccc12)C(=O)N[C@@H](CC(C)C)C(=O)N[C@H](C(=O)N[C@@H](CCC(N)=O)C(=O)N[C@@H](Cc1c[nH]cn1)C(=O)N[C@@H](CCCCN)C(=O)N[C@H](C(=O)N[C@H](C(=O)N[C@@H](CC(=O)O)C(=O)O)[C@@H](C)O)[C@@H](C)CC)[C@@H](C)CC [B, reference compound] (HELM PEPTIDE1{H.[Aib].E.G.S.F.S.S.E.L.A.T.I.L.D.K.Q.A.A.R.D.F.I.A.W.L.I.Q.H.K.I.T.D}|PEPTIDE2{[O=C(O)CCCCCCCCCCCCCCCCC(=O)[*:2]].[gGlu]}$PEPTIDE1,PEPTIDE2,16:R3-2:R2$$$V2.0)	A (>90% normalised stability)	A (>90% normalised stability)
CC[C@H](C)[C@H](NC(=O)[C@H](CC(C)C)NC(=O)[C@H](Cc1c[nH]c2ccccc12)NC(=O)[C@H](C)NC(=O)[C@@H](NC(=O)[C@H](Cc1ccccc1)NC(=O)[C@H](CC(=O)O)NC(=O)[C@H](CCCNC(=N)N)NC(=O)[C@H](C)NC(=O)[C@H](C)NC(=O)[C@H](CC(C)C)NC(=O)[C@H](CCCCNC(=O)CC[C@H](NC(=O)CCCCCCCCCCCCCCCCC(=O)O)C(=O)O)NC(=O)[C@H](CC(=O)O)NC(=O)[C@H](CC(C)C)NC(=O)[C@@H](NC(=O)[C@@H](NC(=O)[C@H](C)NC(=O)[C@H](CC(C)C)NC(=O)[C@H](CCC(=O)O)NC(=O)[C@H](CO)NC(=O)[C@@H](NC(=O)[C@H](Cc1ccccc1)NC(=O)[C@H](CO)NC(=O)CNC(=O)[C@H](CCC(=O)O)NC(=O)C(C)(C)NC(=O)[C@@H](N)Cc1c[nH]cn1)[C@@H](C)O)[C@@H](C)O)[C@@H](C)CC)[C@@H](C)CC)C(=O)N[C@@H](C)C(=O)N[C@@H](Cc1c[nH]cn1)C(=O)N[C@@H](CCCCN)C(=O)N[C@H](C(=O)N[C@H](C(=O)N[C@@H](CC(=O)O)C(=O)O)[C@@H](C)O)[C@@H](C)CC [Compound 14] (HELM PEPTIDE1{H.[Aib].E.G.S.F.T.S.E.L.A.T.I.L.D.K.L.A.A.R.D.F.I.A.W.L.I.A.H.K.I.T.D}|PEPTIDE2{[O=C(O)CCCCCCCCCCCCCCCCC(=O)[*:2]].[gGlu]}$PEPTIDE1,PEPTIDE2,16:R3-2:R2$$$V2.0)	A (>90% normalised stability)	–

More lines, now with the values ahead:

pH 7 normalized stability	pH 6 normalized stability (pH 6, 40° C.)	Structure (SMILES)
A (>90% normalised stability)	–	CC[C@H](C)[C@H](NC(=O)[C@H](CC(C)C)NC(=O)[C@H](Cc1c[nH]c2ccccc12)NC(=O)[C@H](C)NC(=O)[C@@H](NC(=O)[C@H](Cc1ccccc1)NC(=O)[C@H](CC(=O)O)NC(=O)[C@H](CCCNC(=N)N)NC(=O)[C@H](C)NC(=O)[C@H](C)NC(=O)[C@H](CCC(N)=O)NC(=O)[C@H](CCCCNC(=O)COCCOCCNC(=O)[C@H](CCCCN)NC(=O)[C@H](CCC(=O)O)NC(=O)[C@H](CCCCN)NC(=O)CC[C@H](NC(=O)CCCCCCCCCCCCCCCCCCC(=O)O)C(=O)O)NC(=O)[C@H](CC(=O)O)NC(=O)[C@H](CC(C)C)NC(=O)[C@@H](NC(=O)[C@@H](NC(=O)[C@H](C)NC(=O)[C@H](CC(C)C)NC(=O)[C@H](CCC(=O)O)NC(=O)[C@H](CO)NC(=O)[C@@H](NC(=O)[C@H](Cc1ccccc1)NC(=O)[C@H](CO)NC(=O)CNC(=O)[C@H](CCC(=O)O)NC(=O)C(C)(C)NC(=O)[C@@H](N)Cc1c[nH]cn1)[C@@H](C)O)[C@@H](C)O)[C@@H](C)CC)[C@@H](C)CC)C(=O)N[C@@H](C)C(=O)N[C@@H](Cc1c[nH]cn1)C(=O)N[C@@H](CCCCN)C(=O)N[C@H](C(=O)N[C@H](C(=O)N[C@@H](CC(=O)O)C(=O)O)[C@@H](C)O)[C@@H](C)CC [Compound 58] (HELM PEPTIDE1{H.[Aib].E.G.S.F.T.S.E.L.A.T.I.L.D.K.Q.A.A.R.D.F.I.A.W.L.I.A.H.K.I.T.D}|PEPTIDE2{[O=C(O)CCCCCCCCCCCCCCCCCCC(=O)[*:2]].[gGlu].K.E.K.[O=C(COCCOCCN[*:1])[*:2]]}$PEPTIDE1,PEPTIDE2,16:R3-6:R2$$$V2.0)
A (>90% normalised stability)	–	CC[C@H](C)[C@H](NC(=O)[C@H](Cc1ccccc1)NC(=O)[C@H](CC(=O)O)NC(=O)[C@H](CCCNC(=N)N)NC(=O)[C@H](C)NC(=O)[C@H](C)NC(=O)[C@H](CCC(N)=O)NC(=O)[C@H](CCC(=O)O)NC(=O)[C@H](CC(=O)O)NC(=O)[C@H](CC(C)C)NC(=O)[C@@H](NC(=O)[C@@H](NC(=O)[C@H](C)NC(=O)[C@H](CCCCNC(=O)COCCOCCNC(=O)[C@H](CCCCN)NC(=O)[C@H](CCC(=O)O)NC(=O)[C@H](CCCCN)NC(=O)CC[C@H](NC(=O)CCCCCCCCCCCCCCCCCCC(=O)O)C(=O)O)NC(=O)[C@H](CCC(=O)O)NC(=O)[C@H](CO)NC(=O)[C@@H](NC(=O)[C@H](Cc1ccccc1)NC(=O)[C@H](CO)NC(=O)CNC(=O)[C@H](CCC(=O)O)NC(=O)C(C)(C)NC(=O)[C@@H](N)Cc1c[nH]cn1)[C@@H](C)O)[C@@H](C)O)[C@@H](C)CC)C(=O)N[C@@H](C)C(=O)N[C@@H](Cc1c[nH]c2ccccc12)C(=O)N[C@@H](CC(C)C)C(=O)N[C@H](C(=O)N[C@@H](CCC(=O)O)C(=O)N[C@@H](Cc1c[nH]cn1)C(=O)N[C@@H](CCCCN)C(=O)N[C@H](C(=O)N[C@H](C(=O)N[C@@H](CC(=O)O)C(=O)O)[C@@H](C)O)[C@@H](C)CC)[C@@H](C)CC [Compound 53] (HELM PEPTIDE1{H.[Aib].E.G.S.F.T.S.E.K.A.T.I.L.D.E.Q.A.A.R.D.F.I.A.W.L.I.E.H.K.I.T.D}|PEPTIDE2{[O=C(O)CCCCCCCCCCCCCCCCCCC(=O)[*:2]].[gGlu].K.E.K.[O=C(COCCOCCN[*:1])[*:2]]}$PEPTIDE1,PEPTIDE2,10:R3-6:R2$$$V2.0)
